In PubChem BioAssay (NCI):
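Values below derive from 48-hour exposures of cells grown in 96-well plates, with endpoints linearly interpolated between the two concentrations bracketing the appropriate inhibition level. GI50 is the concentration that inhibits growth by half. TGI marks complete inhibition of growth.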

Assays:
Experiment in all cases: inhibition of tumour cell growth, NCI panel, 48 h
[1] = test system: 786-0 renal
[2] = test system: A498 renal
[3] = test system: A549 NSCLC
[4] = test system: ACHN renal
[5] = test system: BT-549 breast
[6] = test system: CAKI-1 renal
[7] = test system: CCRF-CEM leukemia
[8] = test system: COLO 205 colon
[9] = test system: DU-145 prostate
[10] = test system: EKVX NSCLC
[11] = test system: HCC-2998 colon
[12] = test system: HCT-116 colon
[13] = test system: HCT-15 colon
[14] = test system: HL-60(TB) leukemia
[15] = test system: HOP-62 NSCLC
[16] = test system: HOP-92 NSCLC
[17] = test system: HS 578T breast
[18] = test system: HT29 colon
[19] = test system: IGROV1 ovarian
[20] = test system: K-562 leukemia
[21] = test system: KM12 colon
[22] = test system: LOX IMVI melanoma
[23] = test system: M14 melanoma
[24] = test system: MALME-3M melanoma
[25] = test system: MCF7 breast
[26] = test system: MDA-MB-231 breast
[27] = test system: MDA-MB-435
[28] = test system: MOLT-4 leukemia
[29] = test system: NCI-H226 lung
[30] = test system: NCI-H23 lung
[31] = test system: NCI-H460 lung
[32] = test system: NCI-H522 lung
[33] = test system: NCI/ADR-RES ovarian
[34] = test system: OVCAR-3 ovarian
[35] = test system: OVCAR-4 ovarian
[36] = test system: OVCAR-5 ovarian
[37] = test system: OVCAR-8 ovarian
[38] = test system: PC-3 prostate
[39] = test system: RPMI-8226 leukemia
[40] = test system: RXF 393 renal
[41] = test system: SF-268 CNS
[42] = test system: SF-295 CNS
[43] = test system: SF-539 CNS
[44] = test system: SK-MEL-2 melanoma
[45] = test system: SK-MEL-28 melanoma
[46] = test system: SK-MEL-5 melanoma
[47] = test system: SN12C renal
[48] = test system: SNB-19 CNS
[49] = test system: SNB-75 CNS
[50] = test system: SR leukemia
[51] = test system: SW-620 colon
[52] = test system: T-47D breast
[53] = test system: TK-10 renal
[54] = test system: U251 CNS
[55] = test system: UACC-257 melanoma
[56] = test system: UACC-62 melanoma
[57] = test system: UO-31 renal

CC(C)(C)c1ccc(NS(=O)(=O)c2ccc3nc(NC(=O)c4cnccn4)[nH]c3c2)cc1
GI50 [1]: 3.35 µM | TGI [1]: 14.8 µM | GI50 [2]: 1.75 µM | TGI [2]: 5.98 µM | GI50 [3]: 2.58 µM | TGI [3]: 16.5 µM | GI50 [4]: 2.21 µM | TGI [4]: 7.63 µM | GI50 [5]: 6.15 µM | TGI [5]: 22.3 µM | GI50 [6]: 4.64 µM | TGI [6]: 17.5 µM | GI50 [7]: 3.2 µM | TGI [7]: > 100 µM | GI50 [8]: 4.1 µM | TGI [8]: 20.9 µM | GI50 [9]: 3.17 µM | TGI [9]: 11.5 µM | GI50 [10]: 5.01 µM | TGI [10]: 18.3 µM | GI50 [11]: 5.19 µM | TGI [11]: 18.9 µM | GI50 [12]: 3.17 µM | TGI [12]: 19.2 µM | GI50 [13]: 0.774 µM | TGI [13]: 14.6 µM | GI50 [14]: 3.67 µM | TGI [14]: 15.7 µM | GI50 [15]: 2.88 µM | TGI [15]: 15.8 µM | GI50 [16]: 1.5 µM | TGI [16]: 5.92 µM | GI50 [17]: 2.66 µM | TGI [17]: 13.2 µM | GI50 [18]: 1.79 µM | TGI [18]: 12.6 µM | GI50 [19]: 1.49 µM | TGI [19]: 13.9 µM | GI50 [20]: 2.38 µM | TGI [20]: > 100 µM | GI50 [21]: 2.16 µM | TGI [21]: 13.9 µM | GI50 [22]: 2.61 µM | TGI [22]: 15.4 µM | GI50 [23]: 2.42 µM | TGI [23]: 17.6 µM | GI50 [24]: 1.06 µM | TGI [24]: 13.1 µM | GI50 [25]: 0.715 µM | TGI [25]: 13.4 µM | GI50 [26]: 4.34 µM | TGI [26]: 17.1 µM | GI50 [27]: 0.346 µM | TGI [27]: 1.53 µM | GI50 [28]: 5 µM | TGI [28]: 57.4 µM | GI50 [29]: 2.27 µM | TGI [29]: 8.19 µM | GI50 [30]: 3.19 µM | TGI [30]: 15.4 µM | GI50 [31]: 2.59 µM | TGI [31]: 11 µM | GI50 [32]: 1.64 µM | TGI [32]: 13.6 µM | GI50 [33]: 1.92 µM | TGI [33]: 8.59 µM | GI50 [34]: 0.654 µM | TGI [34]: 3.03 µM | GI50 [35]: 5.37 µM | TGI [35]: 19.3 µM | GI50 [36]: 5.61 µM | TGI [36]: 19 µM | GI50 [37]: 5.78 µM | TGI [37]: 38.8 µM | GI50 [38]: 1.65 µM | TGI [38]: 10.6 µM | GI50 [39]: 4.51 µM | TGI [39]: > 100 µM | GI50 [40]: 1.41 µM | TGI [40]: 4.28 µM | GI50 [41]: 4.29 µM | TGI [41]: 19.2 µM | GI50 [42]: 0.743 µM | TGI [42]: 5.09 µM | GI50 [43]: 1.95 µM | TGI [43]: 4.96 µM | GI50 [44]: 4.56 µM | TGI [44]: 19 µM | GI50 [45]: 3.57 µM | TGI [45]: 17.5 µM | GI50 [46]: 1.07 µM | TGI [46]: 6.01 µM | GI50 [47]: 3.85 µM | TGI [47]: 15.9 µM | GI50 [48]: 3.31 µM | TGI [48]: 18.3 µM | GI50 [49]: 1.75 µM | TGI [49]: 6.49 µM | GI50 [50]: 0.68 µM | TGI [50]: > 100 µM | GI50 [51]: 2.37 µM | TGI [51]: 14.4 µM | GI50 [52]: 4.37 µM | TGI [52]: 23.7 µM | GI50 [53]: 8.84 µM | TGI [53]: 23.4 µM | GI50 [54]: 3.96 µM | TGI [54]: 19.6 µM | GI50 [55]: 10.8 µM | TGI [55]: 26 µM | GI50 [56]: 1.11 µM | TGI [56]: 13.2 µM | GI50 [57]: 2.08 µM | TGI [57]: 10.7 µM
